# Measured values published in PMC9658586, “1,4-Naphthoquinone Motif in the Synthesis of New Thiopyrano[2,3-d]thiazoles as Potential Biologically Active Compounds” (Molecules, 2022).
# pIC50: −log10 of the molar value. Where two headings read alike, the source gives them in different places.
# How the values were obtained:
# [1] = system: Human colon carcinoma HCT116 p53-/- cells; test: MTT cell viability assay, HCT116 p53-/-; assay type: cell-based; conditions: MTT, 72 h, read-out: IC50, HCT116 p53-/-
# Method: (§1) The MTT cell viability assay was performed 72 h after cells treatment with various concentrations of studied compounds and doxorubicin, a reference drug. […] It is known that ABCB1 (P-glycoprotein), MRP1/ABCC1 (multidrug resistance protein 1), and BCRP/BCG2 (breast cancer resistance protein) have been reported to be key players in resistance to chemotherapy. […] The p53 has diverse mutations in almost all human tumors, stimulating their hyper-proliferation, invasion/metastasis, and thus, influencing the potency of various chemotherapeutics (i.e., platins and anti-metabolites).
# (§2) Human colon carcinoma HCT116 cells, human breast adenocarcinoma cells of MCF-7 line, human T-leukemia Jurkat cells, human chronic myelogenous leukemia K562 cells, and human keratinocytes of HaCaT line were from the Cell Collection of R.E. Kavetsky Institute of Experimental Pathology, Oncology and Radiobiology (Kyiv, Ukraine). Murine macrophages of J774.2 line were a generous gift from Professor Sir John Vane (William Harvey Research Institute, London, UK) via Professor Janusz Marcinkiewicz (Jagiellonian University Medical College, Krakow, Poland). Human colon carcinoma HCT116 p53-/- cells with knockdown of P53 gene, as well as human epidermoid cervix carcinoma KB3-1 cells and its ABCB1-overexpressing subline KBC-1, were kindly provided by Professor W. Berger (Institute of Cancer Research, Medical University of Vienna, Austria). […] Human leukemia monocytic THP-1 cells were kindly provided by Professor M. Herrmann (Department of Internal Medicine, Institute for Clinical Immunology and Rheumatology, University of Erlangen-Nuremberg, Germany). Cells were cultured in DMEM or RPMI-1640 medium supplemented with 10% fetal bovine serum (all were purchased from Biowest, Nuaille, France) at 37 °C in a humidified atmosphere containing 5% CO2.
# (§3) MTT assay was used to examine the viability of tumor and pseudo-normal cells after their treatment with studied thiopyrano[2,3-d]thiazole derivatives and doxorubicin (Actavis S.R.L., Bucharest, Romania). Cells were seeded in 96-well plates at a density of 3–5 × 103. After 24 h, cells were treated with compound […], 1,4-NQ (0.1–100 µM), and doxorubicin (0.1–100 µM). After incubation for 72 h, MTT reagent (Sigma-Aldrich, St. Louis, MO, USA) was added to each well, according to the Sigma-Aldrich protocol. An absorbance Reader BioTek ELx800 (BioTek Instruments, Inc., Winooski, VT, USA) was used to measure the reaction product.
# [2] = system: Human colon carcinoma HCT116 cells (HCT116wt); test: MTT cell viability assay, HCT116wt; assay type: cell-based
# Method: as §1, §2, §3
# [3] = system: human epidermoid cervix carcinoma KB3-1 cells; test: MTT cell viability assay, KB3-1; assay type: cell-based
# Method: as §1, §2, §3
# [4] = system: human breast adenocarcinoma cells of MCF-7 line; test: MTT cell viability assay, MCF-7; assay type: cell-based
# Method: as §1, §2, §3
# [5] = system: human chronic myelogenous leukemia K562 cells; test: MTT cell viability assay, K562; assay type: cell-based
# Method: as §1, §2, §3
# [6] = system: Murine macrophages of J774.2 line; test: MTT cell viability assay, J774.2; assay type: cell-based; conditions: pseudo-normal murine macrophages
# Method: as §1, §2, §3
# salmon sperm DNA = test: DNA/methyl green colorimetric (replacement) assay; assay type: binding; conditions: 1µM
# Method: In addition, we used DNA/methyl green colorimetric assay to study the possible interaction of compound 3.6 in DNA. […] This assay was used to measure the displacement of methyl green from DNA by compounds with the ability to intercalate DNA [54].
# The capacity of the tested compounds to intercalate into salmon sperm DNA was determined using the methyl green assay. Briefly, salmon sperm DNA (10 mg/mL) was incubated for 1 h at 37 °C with 15 µL of methyl green solution (1 mg/mL in H2O). The compounds were added at concentrations 1 and 10 µM/mL and incubated at 37 °C in the dark for 2 h. Reduction of the absorbance of methyl green at 642 nm induced by the test compounds was measured with a multiplate reader, Plate Reader BioTek Lx80 ( BioTek Instruments, Inc., Winooski, VT, USA). Doxorubicin, a well-known intercalating agent, was used as a positive control.
# [7] = system: KBC-1 (ABCB1-overexpressing subline of KB3-1); test: MTT cell viability assay, KBC-1; assay type: cell-based; conditions: Homo sapiens, 72 h
# Method: as §1
# as §2, with “Cells were cultured in DMEM or RPMI-1640 medium supplemented with 10% fetal bovine serum (all were purchased from Biowest, Nuaille, France) at 37 °C in a humidified atmosphere containing 5% CO2.” left out
# MTT assay was used to examine the viability of tumor and pseudo-normal cells after their treatment with studied thiopyrano[2,3-d]thiazole derivatives and doxorubicin (Actavis S.R.L., Bucharest, Romania). […] An absorbance Reader BioTek ELx800 (BioTek Instruments, Inc., Winooski, VT, USA) was used to measure the reaction product.
# [8] = system: isolated normal human peripheral blood lymphocytes; test: MTT cell viability assay, isolated lymphocytes; assay type: cell-based; conditions: Homo sapiens, Lymphocyte, 72 h, read-out: IC50, Isolated lymphocytes, MTT, 72 h, normal human peripheral blood lymphocytes
# Method: We continued the cytotoxicity study of synthesized derivatives 3.1–3.6 toward tumor and pseudo-normal cells in vitro. The MTT cell viability assay was performed 72 h after cells treatment with various concentrations of studied compounds and doxorubicin, a reference drug. […] The THP-1 cells, monocytes isolated from peripheral blood from an acute monocytic leukemia patient, were also sensitive to the 3.6 treatment. […] The 3.6 inhibited the viability of epidermoid carcinoma (KB3-1 and its ABCB1-overexpressing subline KBC-1) and colon carcinoma (HCT116wt and its p53 knockdown subline HCT116 p53-/-) cells. It is known that ABCB1 (P-glycoprotein), MRP1/ABCC1 (multidrug resistance protein 1), and BCRP/BCG2 (breast cancer resistance protein) have been reported to be key players in resistance to chemotherapy. […] Thus, the p53 status of colon carcinoma cells influenced the anti-tumor effects of the studied 3,5,10,11-tetrahydro-2H-benzo[6,7]thiochromeno[2,3-d][1, 3]thiazole-2,5,10-trione. The p53 has diverse mutations in almost all human tumors, stimulating their hyper-proliferation, invasion/metastasis, and thus, influencing the potency of various chemotherapeutics (i.e., platins and anti-metabolites). […] Based on our findings, one can assume a p53-dependent mode of action for 3.6 toward colon cancer cells.
# as §3
# The study protocol with human lymphocytes isolated from healthy adult peripheral blood was approved by BioEthics Committee of the Institute of Cell Biology of National Academy of Sciences of Ukraine (protocol No 2 from 27 January 2019), and with written consent of donor.
# SR/Leukemia = test: NCI single-dose screen, SR; assay type: cell-based, human; conditions: 10 μM, 48 h
# Method: (§4) Considering the results of previous studies of fused thiazolidinones and their analogs, a series of thiopyrano[2,3-d]thiazoles with naphthoquinone fragments in the structure were studied for their anticancer activity. Thus, synthesized thiopyranothiazole derivatives 3.5 and 3.6 were selected by the National Cancer Institute (NCI), U.S., for their anticancer activity at 10 μM concentration toward a panel of sixty cancer cell lines representing nine different types (leukemia, melanoma, lung, colon, CNS, ovarian, renal, prostate, and breast cancers) (Figures S13–S14). Selection for screening based on new derivatives’ ability to add diversity to the NCI small molecules collection and anticancer assays were performed according to the NCI guidelines and protocols previously described. The compounds were added at the mentioned concentration, and the cell cultures were incubated for 48 h. The results for each compound were reported as the growth percent (GP%) of treated cells compared with untreated control cells.
# (§5) Anticancer in vitro assay was performed on the human tumor cell lines panel derived from nine neoplastic diseases by the protocol of the Drug Evaluation Branch, National Cancer Institute, Bethesda, MD, USA [44, 45, 46]. […] GP% was spectrophotometrically evaluated vs. controls not treated with test agents.
# [9] = system: EKVX/Non-Small Cell Lung Cancer; test: NCI single-dose screen, EKVX; assay type: cell-based, human; conditions: 10 μM, 48 h
# Method: as §4, §5
# [10] = system: panel of sixty cancer cell lines; test: NCI single-dose (10 μM) anticancer screen, sulforhodamine B, 60-cell-line panel; assay type: cell-based, human; conditions: 48 h
# Method: as §4
# Anticancer in vitro assay was performed on the human tumor cell lines panel derived from nine neoplastic diseases by the protocol of the Drug Evaluation Branch, National Cancer Institute, Bethesda, MD, USA [44, 45, 46]. Tested compounds were added to the culture at a single concentration (10^−5 M), and the cultures were incubated for 48 h. Endpoint determinations were made with a protein binding dye, sulforhodamine B. Results for each tested compound were reported as the GP% of the treated cells compared to untreated control cells. GP% was spectrophotometrically evaluated vs. controls not treated with test agents.
# IGROV1/Ovarian Cancer = test: NCI single-dose screen, IGROV1; assay type: cell-based, human; conditions: 10 μM, 48 h
# Method: as §4, §5
# RPMI-8226/Leukemia = test: NCI single-dose screen, RPMI-8226; assay type: cell-based, human; conditions: 10 μM, 48 h
# Method: as §4, §5
# UO-31/Renal Cancer = test: NCI single-dose screen, UO-31; assay type: cell-based, human; conditions: 10 μM, 48 h
# Method: as §4, §5
# T-47D/Breast Cancer = test: NCI single-dose screen, T-47D; assay type: cell-based, human; conditions: 10 μM, 48 h
# Method: as §4, §5
"pIC50 ([3]; Homo sapiens, KB 3-1, 72 h)","pIC50 ([1]; Homo sapiens, HCT-116)","pIC50 ([2]; Homo sapiens, HCT-116, 72 h)",melting point [°C],"pIC50 ([4]; Homo sapiens, MCF7, 72 h)","pIC50 ([5]; Homo sapiens, K562, 72 h)",Compound,"pIC50 ([6]; Mus musculus, J774.2, 72 h)",also measured
–,–,–,–,–,–,"11-(2-Phenylprop-1-en-1-yl)-3,11-dihydro-2H-benzo[6,7]thiochromeno[2,3-d]thiazole-2,5,10-trione [Compound 3.3]",–,pIC50 [1]: 4.96; pIC50 ([2]; 72 h): 4.80; pIC50 ([3]; 72 h): 4.54; pIC50 ([4]; 72 h): 4.57; pIC50 ([5]; 72 h): 4.89; pIC50 ([6]; 72 h): 4.52
4.43,4.39,4.53,338 to 340,5.04,4.36,"O=C1C2=C(C(=O)c3ccccc31)C(C=Cc1ccccc1)c1sc(=O)[nH]c1S2 (stereo not shown) [Compound 3.1, 11-Styryl-3,11-dihydro-2H-benzo [6,7]thiochromeno [2,3-d]thiazole-2,5,10-trione]",4.61,–
4.41,< 4.30,5.17,330 to 332,5.07,4.59,"O=C1C2=C(C(=O)c3ccccc31)C(C=Cc1ccccc1[N+](=O)[O-])c1sc(=O)[nH]c1S2 (stereo not shown) [Compound 3.2, 11-(2-Nitrostyryl)-3,11-dihydro-2H-benzo[6,7]thiochromeno[2,3-d]thiazole-2,5,10-trione]",6.13,–
4.58,4.60,5.26,230 to 232,4.46,5.15,"CC1(C)C2=C(Sc3[nH]c(=O)sc31)C(=O)c1ccccc1C2=O [Compound 3.4, 11,11-Dimethyl-3,11-dihydro-2H-benzo[6,7]thiochromeno[2,3-d]thiazole-2,5,10-trione]",4.96,–
< 4.30,< 4.30,4.36,231 to 233,< 4.30,< 4.30,"O=C1C2=C(C(=O)c3ccccc31)C1(CCCC1)c1sc(=O)[nH]c1S2 [Compound 3.5, Spiro[benzo[6,7]thiochromeno[2,3-d]thiazole-11,1’-cyclopentane]-2,5,10(3H)-trione]",< 4.30,"Most Sensitive Cell Line Growth, % (SR/Leukemia) (SR/Leukemia): 59.89%; Most Sensitive Cell Line Growth, % (EKVX/Non-Small Cell Lung Cancer) [9]: 54.98%; Mean Growth, % ([10]; growth percent vs untreated control, 60 cell lines): 88.33%; Range of Growth, % ([10]; range over 60 cell lines): 51.21 to 126.93%; Most Sensitive Cell Line Growth, % (IGROV1/Ovarian Cancer) (IGROV1/Ovarian Cancer): 55.15%; Most Sensitive Cell Line Growth, % (RPMI-8226/Leukemia) (RPMI-8226/Leukemia): 53.82%; Most Sensitive Cell Line Growth, % (UO-31/Renal Cancer) (UO-31/Renal Cancer): 55.54%; Most Sensitive Cell Line Growth, % (T-47D/Breast Cancer) (T-47D/Breast Cancer): 51.21%"

Compound,"pIC50 ([3]; Homo sapiens, KB 3-1, 72 h)","pIC50 ([1]; Homo sapiens, HCT-116)","pIC50 ([2]; Homo sapiens, HCT-116, 72 h)",melting point [°C],"pIC50 ([4]; Homo sapiens, MCF7, 72 h)","pIC50 ([5]; Homo sapiens, K562, 72 h)","pIC50 ([6]; Mus musculus, J774.2, 72 h)",also measured
"O=C1C=CC(=O)c2ccccc21 [1,4-NQ, 1,4-naphthoquinone]",4.68,–,–,–,–,–,–,percentage of methyl green replacement (salmon sperm DNA): 65%; pIC50 [7]: 5.08; pIC50 [8]: 4.20
